Test results from the supplement of paper PMC10307832.

Legend:
Test in all cases: relative viability (nuclei count vs DMSO), 5 days (fraction); higher = more cells survive
[1] = compound: CCCS(=O)(=O)Nc1ccc(F)c(C(=O)c2c[nH]c3ncc(-c4ccc(Cl)cc4)cc23)c1F [Vemurafenib] + O=C(CCCCCCC(=O)Nc1ccccc1)NO [Vorinostat] (partner 1 µM)
Method in brief: (§1)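 Relative viability divides the nuclei count in treated wells by that in vehicle wells. Lung cancer cell lines were seeded in 1536-well plates, dosed by pin tool the next day, and fixed and stained after 5 days in one step with final 0.05% Triton X-100, 1% formaldehyde and 1 ug/ml Hoechst. Dosing was a single drug or a fixed anchor-drug dose plus five library-drug doses (not always all listed) in √10 steps, and values are medians of duplicate plates imaged at 4×.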

[2] = compound: Cc1nc(NC(=O)N2CCC[C@H]2C(N)=O)sc1-c1ccnc(C(C)(C)C(F)(F)F)c1 [Alpelisib] + O=C(c1cc(Cc2n[nH]c(=O)c3ccccc23)ccc1F)N1CCN(C(=O)C2CC2)CC1 [Olaparib] (partner 8 µM)
Method in brief: as §1

[3] = compound: Cc1nc(NC(=O)N2CCC[C@H]2C(N)=O)sc1-c1ccnc(C(C)(C)C(F)(F)F)c1 [Alpelisib] + CC1(C)CCC(c2ccc(Cl)cc2)=C(CN2CCN(c3ccc(C(=O)NS(=O)(=O)c4ccc(N[C@H](CCN5CCOCC5)CSc5ccccc5)c(S(=O)(=O)C(F)(F)F)c4)cc3)CC2)C1 [Navitoclax] (partner 0.5 µM)
Method in brief: as §1

[4] = compound: CCCS(=O)(=O)Nc1ccc(F)c(C(=O)c2c[nH]c3ncc(-c4ccc(Cl)cc4)cc23)c1F [Vemurafenib] + COc1cccc2cc(-c3nc([C@H]4CC[C@H](C(=O)O)CC4)n4ncnc(N)c34)[nH]c12 [OSI-027] (partner 0.5 µM)
Method in brief: as §1

Which results are given for UMC-11?
relative viability ([1]; first compound 0.03162 µM): 0.383; relative viability ([1]; first compound 0.1 µM): 0.439; relative viability ([1]; first compound 0.3162 µM): 0.576; relative viability ([1]; first compound 1 µM): 0.37; relative viability ([2]; first compound 0.04 µM): 0.362; relative viability ([2]; first compound 0.1265 µM): 0.328; relative viability ([2]; first compound 0.4 µM): 0.389; relative viability ([2]; first compound 1.265 µM): 0.346; relative viability ([2]; first compound 4 µM): 0.315; relative viability ([3]; first compound 0.04 µM): 0.319; relative viability ([3]; first compound 0.1265 µM): 0.341; relative viability ([3]; first compound 0.4 µM): 0.336; relative viability ([3]; first compound 1.265 µM): 0.325; relative viability ([3]; first compound 4 µM): 0.273; relative viability ([4]; first compound 0.03162 µM): 0.541; relative viability ([4]; first compound 0.1 µM): 0.519; relative viability ([4]; first compound 0.3162 µM): 0.411; relative viability ([4]; first compound 1 µM): 0.44
